Values quoted from earlier work as cited in patent US20220000787A1, “DELAYED RELEASE PHARMACEUTICAL COMPOSITION OF PREDNISONE AND PREPARATION THEREOF” (PIRAMAL PHARMA LIMITED, priority 2020, published 2022).

Solubility in alcohol, chloroform, dioxane, and methanol (alcohol, chloroform, dioxane, methanol): slightly soluble | Solubility in water (water): very slightly soluble
Structure (SMILES): C[C@]12C=CC(=O)C=C1CC[C@@H]1[C@@H]2C(=O)C[C@@]2(C)[C@H]1CC[C@]2(O)C(=O)CO [Prednisone, 17,21-dihydroxypregna-1,4-diene-3,11,20-trione]
